According to US8016810B2, “Transdermal delivery system for cosmetic agents” (TransPharma Medical Ltd., priority 2003, dated 2011):

Key:
[1] = In vitro skin permeation study, flow-through Franz diffusion cell, ViaDerm (micro-channel) treated vs intact skin; format: in vitro ADME, porcine; details: for Total permeated amount: after 24 hr
Procedure: The density of the microelectrode array was 100 microelectrodes/cm^2. […] The permeability of the cosmetic agents through porcine skin was measured in vitro with a flow-through Franz diffusion cell system (Laboratory Glass Apparatus, Berkeley, Calif.). […] Skin micro-channeling was performed in cells defined as VD (ViaDerm) application group, and then TEWL was measured again to control the operation. The skin pieces were placed on the receiver chambers with the stratum corneum facing upwards, and the donor chambers were clamped in place. […] Samples from the acceptor solutions were collected into tubes (using a fraction collector, Retriever IV, ISCO, Lincoln, Nebr., USA) at predetermined times for up to 24 hr period. The samples were kept at 4° C. until analyzed by HPLC. Samples from the acceptor solutions (10-50 μl) were injected into HPLC system (Waters) equipped with a pre-packed LiChrospher C18 column (150×3.9 mm, 5 μm; Waters), and a UV detector. […] The Salicylic acid samples were separated using an isocratic mobile phase containing 5% methanol 25% Acetonitrile and 0.01 mol/l KH2PO4/H3PO4 buffer pH 2.3 in H2O, at a flow rate 1 ml/min. The detection of salicylic acid was performed at a wavelength of 237 nm. […] The detection of hydroquinone was performed at a wavelength of 280 nm. […] The permeation efficacy is defined as the % of penetrated agent out of total amount of the agent applied on the skin.

[2] = over a 4 to 6 month period, systemic; cited from earlier work
[3] = relative to hydroquinone; cited from earlier work
[4] = ViaDerm treated skin, after 24 h, 0.25 ml solution in donor chamber
[5] = ViaDerm treated skin, 0.25 ml solution in donor chamber
[6] = after 3 h, 0.25 ml solution in donor chamber
[7] = after 24 h, 0.25 ml solution in donor chamber
[8] = control untreated skin, 0.25 ml solution in donor chamber
[9] = untreated skin, after 24 h, 0.25 ml solution in donor chamber

Permeation efficacy [1, 4] [%] | Total permeated amount [1, 5] [μg/cm^2] | Difference in permeated amount, ViaDerm treated compared to untreated skin [1, 6] [fold] | Difference in permeated amount, ViaDerm treated compared to untreated skin [1, 7] [fold] | Total permeated amount [1, 8] [μg/cm^2] | Permeation efficacy [1, 9] [%] | SMILES | Quantity required to achieve a similar skin whitening effect, compared to the quantity of hydroquinone used [3] | also measured
62 | 820 | 17 | 10 | 84 | 4 | O=C(O)c1ccccc1O [salicylic acid] |  | 
 |  |  |  |  |  | CC1=C(/C=C/C(C)=C/C=C/C(C)=C\C(=O)O)C(C)(C)CCC1 [isotretinoin] |  | Acne cleared by treatment [2]: ≤ 85%
 |  |  |  |  |  | O=C1O[C@H]([C@@H](O)CO)C(O)=C1O [ascorbic acid] | 17 times | 
27 | 1824 | 39 | 29 | 62 | 1 | Oc1ccc(O)cc1 [hydroquinone] |  | 
 |  |  |  |  |  | Cn1c(=O)c2c(ncn2C)n(C)c1=O [caffeine] |  | Caffeine flux (plateau) ([1]; ViaDerm pretreated skin, after 6 hours, 0.25 ml of 1% w/v aqueous solution): 18.5 ± 2.2 µg/mL; Permeation efficacy ([1]; ViaDerm pretreated skin, after 16 hours, 0.25 ml of 1% w/v solution): 37.1±4.8%; Permeation efficacy, ViaDerm in comparison to untreated skin ([1]; after 16 hours, 0.25 ml of 1% w/v solution): 10 fold; Caffeine flux ([1]; control untreated skin, after 6 hours, 0.25 ml of 1% w/v aqueous solution): 0.4 ± 0.3 µg/mL; Cumulative permeability through ViaDerm treated skin compared to intact skin ([1]; result in words (FIGS. 1, 2, 4)): enhanced; Permeation efficacy ([1]; untreated skin, after 16 hours, 0.25 ml of 1% w/v solution): 3.6±2.6%
 |  |  |  |  |  | OC[C@H]1O[C@@H](Oc2ccc(O)cc2)[C@H](O)[C@@H](O)[C@@H]1O [arbutin] | over 100 times | 
